Assay results: PMC11460631, “Inhibition of transient receptor potential vanilloid 3 channels by antimalarial hydroxychloroquine alleviates TRPV3-dependent dermatitis” (The Journal of Biological Chemistry, 2024)

Target: T1, TRPV3 Y594 alanine mutation (Homo sapiens, UniProt Q8NET8, Y594A)
T1 construct: YFP or GFP; expressed in transfected cells; host or cells: HEK293T
T1 sequence (Q8NET8 1-790 Y594A): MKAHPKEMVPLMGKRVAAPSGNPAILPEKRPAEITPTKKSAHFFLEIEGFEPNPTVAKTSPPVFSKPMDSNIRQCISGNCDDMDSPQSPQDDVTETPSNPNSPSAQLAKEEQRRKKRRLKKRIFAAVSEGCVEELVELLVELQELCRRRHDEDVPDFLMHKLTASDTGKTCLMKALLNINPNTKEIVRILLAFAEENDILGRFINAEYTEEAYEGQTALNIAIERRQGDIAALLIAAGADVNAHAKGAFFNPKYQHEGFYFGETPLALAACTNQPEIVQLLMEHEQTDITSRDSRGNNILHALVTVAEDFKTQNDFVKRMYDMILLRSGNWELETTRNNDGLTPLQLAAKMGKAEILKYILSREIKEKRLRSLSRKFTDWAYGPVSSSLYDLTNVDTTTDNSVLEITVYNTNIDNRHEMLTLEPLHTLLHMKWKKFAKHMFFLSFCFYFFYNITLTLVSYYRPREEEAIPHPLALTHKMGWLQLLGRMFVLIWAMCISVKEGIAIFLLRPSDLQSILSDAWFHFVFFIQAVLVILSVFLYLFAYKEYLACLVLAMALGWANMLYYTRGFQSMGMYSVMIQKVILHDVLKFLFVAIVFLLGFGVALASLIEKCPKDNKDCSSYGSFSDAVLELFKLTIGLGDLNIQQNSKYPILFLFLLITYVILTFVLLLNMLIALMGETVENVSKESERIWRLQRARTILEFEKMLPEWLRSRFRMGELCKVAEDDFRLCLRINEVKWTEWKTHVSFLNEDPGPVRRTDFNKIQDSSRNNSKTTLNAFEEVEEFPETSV
Experiment: Whole-cell recording of TRPV3 Y594 alanine mutant
Type: cell-based
Settings: 1 mM 2-APB, ± 80 mV
Excerpt: As we mentioned above, HCQ may act as a pore blocker of TRPV3. To probe the binding configuration of HCQ to TRPV3, we carried out molecular docking using Rosetta suite (https://rosettacommons.org) ([21]) and validated the docking models with point mutations in TRPV3 (Fig. 4A). […] Furthermore, when we introduced L670A to L591A mutant, we also observed a left shift on the concentration–response curve on this double mutant as compared to L591A mutant (Fig. 4H).
Figure 4 Residues of the pore domain are critical for HCQ inhibition on TRPV3.A, left panel, docking model of HCQ to the pore domain of TRPV3 structure (6uw4). Right panels, top view and side view of the HCQ-binding pocket. B-J, representative whole-cell recording of TRPV3 and mutants in response to 1 mM 2-APB, the mixture of 1 mM 2-APB and concentration gradients of HCQ with the holding potential of ± 80 mV. K, concentration–response curves of HCQ in WT TRPV3 and mutants (n = 3–5 cells). L, quantification of the inhibitory ratio of HCQ (100 μM) on WT, L591A, and N671Q. […]
All data from whole-cell recordings were analyzed in Igor Pro (WaveMetrics). IC50 values were determined by fitting the Hill equation to concentration-response relationships. […]

SMILES: CCN(CCO)CCCC(C)Nc1ccnc2cc(Cl)ccc12 (stereo not shown) [HCQ, hydroxychloroquine]
- IC50: 1570 ± 80 nM
